According to the supplement of paper PMC10307832:

Assays:
Assay in all cases: relative viability (nuclei count vs DMSO), 5 days (fraction); higher = more cells survive
Nelarabine + AZD7762 = compound: COc1nc(N)nc2c1ncn2[C@@H]1O[C@H](CO)[C@@H](O)[C@@H]1O [Nelarabine] + NC(=O)Nc1cc(-c2cccc(F)c2)sc1C(=O)N[C@H]1CCCNC1 [AZD7762] (partner 0.2 µM)
In short: (§1)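 A single step with final 0.05% Triton X-100, 1% formaldehyde and 1 ug/ml Hoechst fixed the cells and stained nuclei 5 days after treatment. Lung cancer cell lines in 1536-well plates had been treated by pin tool the day after seeding with one drug alone or a fixed anchor-drug dose plus five library-drug doses (not always all listed) in √10 steps, and nuclei were counted on 4× images. Relative viability is the ratio of nuclei in treated wells to nuclei in vehicle wells, taken as the median of duplicate plates.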

Nelarabine + Phenformin = compound: COc1nc(N)nc2c1ncn2[C@@H]1O[C@H](CO)[C@@H](O)[C@@H]1O [Nelarabine] + N=C(N)NC(=N)NCCc1ccccc1 [Phenformin] (partner 250 µM)
In short: as §1

Adavosertib + Bortezomib = compound: C=CCn1c(=O)c2cnc(Nc3ccc(N4CCN(C)CC4)cc3)nc2n1-c1cccc(C(C)(C)O)n1 [Adavosertib] + CC(C)C[C@H](NC(=O)[C@H](Cc1ccccc1)NC(=O)c1cnccn1)B(O)O [Bortezomib] (partner 0.002 µM)
In short: as §1

Adavosertib + Vorinostat = compound: C=CCn1c(=O)c2cnc(Nc3ccc(N4CCN(C)CC4)cc3)nc2n1-c1cccc(C(C)(C)O)n1 [Adavosertib] + O=C(CCCCCCC(=O)Nc1ccccc1)NO [Vorinostat] (partner 1 µM)
In short: as §1

RERF-LC-KJ
relative viability (Nelarabine + AZD7762; first compound 0.01 µM): 0.993
relative viability (Nelarabine + AZD7762; first compound 0.03162 µM): 1.11
relative viability (Nelarabine + AZD7762; first compound 0.1 µM): 1.02
relative viability (Nelarabine + AZD7762; first compound 0.3162 µM): 1.15
relative viability (Nelarabine + AZD7762; first compound 1 µM): 1.08
relative viability (Nelarabine + Phenformin; first compound 0.01 µM): 0.436
relative viability (Nelarabine + Phenformin; first compound 0.03162 µM): 0.427
relative viability (Nelarabine + Phenformin; first compound 0.1 µM): 0.403
relative viability (Nelarabine + Phenformin; first compound 0.3162 µM): 0.403
relative viability (Nelarabine + Phenformin; first compound 1 µM): 0.425
relative viability (Adavosertib + Bortezomib; first compound 0.01 µM): 1.14
relative viability (Adavosertib + Bortezomib; first compound 0.03162 µM): 1.02
relative viability (Adavosertib + Bortezomib; first compound 0.1 µM): 1.19
relative viability (Adavosertib + Bortezomib; first compound 0.3162 µM): 1.28
relative viability (Adavosertib + Vorinostat; first compound 0.01 µM): 0.65
relative viability (Adavosertib + Vorinostat; first compound 0.03162 µM): 0.708
relative viability (Adavosertib + Vorinostat; first compound 0.1 µM): 0.629
relative viability (Adavosertib + Vorinostat; first compound 0.3162 µM): 0.654

HCC-15
relative viability (Nelarabine + AZD7762; first compound 0.01 µM): 1.47
relative viability (Nelarabine + AZD7762; first compound 0.03162 µM): 1.15
relative viability (Nelarabine + AZD7762; first compound 0.1 µM): 0.967
relative viability (Nelarabine + AZD7762; first compound 0.3162 µM): 1.17
relative viability (Nelarabine + AZD7762; first compound 1 µM): 1.19
relative viability (Nelarabine + Phenformin; first compound 0.01 µM): 0.582
relative viability (Nelarabine + Phenformin; first compound 0.03162 µM): 0.443
relative viability (Nelarabine + Phenformin; first compound 0.1 µM): 0.426
relative viability (Nelarabine + Phenformin; first compound 0.3162 µM): 0.51
relative viability (Nelarabine + Phenformin; first compound 1 µM): 0.498
relative viability (Adavosertib + Bortezomib; first compound 0.01 µM): 1.01
relative viability (Adavosertib + Bortezomib; first compound 0.03162 µM): 0.953
relative viability (Adavosertib + Bortezomib; first compound 0.1 µM): 1.07
relative viability (Adavosertib + Bortezomib; first compound 0.3162 µM): 1.26
relative viability (Adavosertib + Vorinostat; first compound 0.01 µM): 0.908
relative viability (Adavosertib + Vorinostat; first compound 0.03162 µM): 0.823
relative viability (Adavosertib + Vorinostat; first compound 0.1 µM): 0.86
relative viability (Adavosertib + Vorinostat; first compound 0.3162 µM): 0.829

EKVX
relative viability (Nelarabine + AZD7762; first compound 0.01 µM): 0.977
relative viability (Nelarabine + AZD7762; first compound 0.03162 µM): 0.63
relative viability (Nelarabine + AZD7762; first compound 0.1 µM): 0.606
relative viability (Nelarabine + AZD7762; first compound 0.3162 µM): 0.717
relative viability (Nelarabine + AZD7762; first compound 1 µM): 0.732
relative viability (Nelarabine + Phenformin; first compound 0.01 µM): 0.22
relative viability (Nelarabine + Phenformin; first compound 0.03162 µM): 0.234
relative viability (Nelarabine + Phenformin; first compound 0.1 µM): 0.231
relative viability (Nelarabine + Phenformin; first compound 0.3162 µM): 0.22
relative viability (Nelarabine + Phenformin; first compound 1 µM): 0.232
relative viability (Adavosertib + Bortezomib; first compound 0.01 µM): 0.992
relative viability (Adavosertib + Bortezomib; first compound 0.03162 µM): 1.14
relative viability (Adavosertib + Bortezomib; first compound 0.1 µM): 0.996
relative viability (Adavosertib + Bortezomib; first compound 0.3162 µM): 1.27
relative viability (Adavosertib + Vorinostat; first compound 0.01 µM): 0.843
relative viability (Adavosertib + Vorinostat; first compound 0.03162 µM): 0.718
relative viability (Adavosertib + Vorinostat; first compound 0.1 µM): 0.697
relative viability (Adavosertib + Vorinostat; first compound 0.3162 µM): 0.682

NCI-H2347
relative viability (Nelarabine + AZD7762; first compound 0.01 µM): 0.915
relative viability (Nelarabine + AZD7762; first compound 0.03162 µM): 0.658
relative viability (Nelarabine + AZD7762; first compound 0.1 µM): 0.718
relative viability (Nelarabine + AZD7762; first compound 0.3162 µM): 0.506
relative viability (Nelarabine + AZD7762; first compound 1 µM): 0.769
relative viability (Nelarabine + Phenformin; first compound 0.01 µM): 0.45
relative viability (Nelarabine + Phenformin; first compound 0.03162 µM): 0.574
relative viability (Nelarabine + Phenformin; first compound 0.1 µM): 0.379
relative viability (Nelarabine + Phenformin; first compound 0.3162 µM): 0.445
relative viability (Nelarabine + Phenformin; first compound 1 µM): 0.381
relative viability (Adavosertib + Bortezomib; first compound 0.01 µM): 0.763
relative viability (Adavosertib + Bortezomib; first compound 0.03162 µM): 0.911
relative viability (Adavosertib + Bortezomib; first compound 0.1 µM): 0.875
relative viability (Adavosertib + Bortezomib; first compound 0.3162 µM): 0.763
relative viability (Adavosertib + Vorinostat; first compound 0.01 µM): 0.548
relative viability (Adavosertib + Vorinostat; first compound 0.03162 µM): 0.71
relative viability (Adavosertib + Vorinostat; first compound 0.1 µM): 0.615
relative viability (Adavosertib + Vorinostat; first compound 0.3162 µM): 0.533

ChaGo-K-1
relative viability (Nelarabine + AZD7762; first compound 0.01 µM): 1
relative viability (Nelarabine + AZD7762; first compound 0.03162 µM): 0.715
relative viability (Nelarabine + AZD7762; first compound 0.1 µM): 0.871
relative viability (Nelarabine + AZD7762; first compound 0.3162 µM): 0.985
relative viability (Nelarabine + AZD7762; first compound 1 µM): 0.821
relative viability (Nelarabine + Phenformin; first compound 0.01 µM): 0.549
relative viability (Nelarabine + Phenformin; first compound 0.03162 µM): 0.426
relative viability (Nelarabine + Phenformin; first compound 0.1 µM): 0.458
relative viability (Nelarabine + Phenformin; first compound 0.3162 µM): 0.529
relative viability (Nelarabine + Phenformin; first compound 1 µM): 0.48
relative viability (Adavosertib + Bortezomib; first compound 0.01 µM): 0.872
relative viability (Adavosertib + Bortezomib; first compound 0.03162 µM): 0.838
relative viability (Adavosertib + Bortezomib; first compound 0.1 µM): 0.897
relative viability (Adavosertib + Bortezomib; first compound 0.3162 µM): 0.699
relative viability (Adavosertib + Vorinostat; first compound 0.01 µM): 0.747
relative viability (Adavosertib + Vorinostat; first compound 0.03162 µM): 0.74
relative viability (Adavosertib + Vorinostat; first compound 0.1 µM): 0.779
relative viability (Adavosertib + Vorinostat; first compound 0.3162 µM): 0.741

NCI-H596
relative viability (Nelarabine + AZD7762; first compound 0.01 µM): 1.2
relative viability (Nelarabine + AZD7762; first compound 0.03162 µM): 1.01
relative viability (Nelarabine + AZD7762; first compound 0.1 µM): 1.05
relative viability (Nelarabine + AZD7762; first compound 0.3162 µM): 1.22
relative viability (Nelarabine + AZD7762; first compound 1 µM): 1.23
relative viability (Nelarabine + Phenformin; first compound 0.01 µM): 0.778
relative viability (Nelarabine + Phenformin; first compound 0.03162 µM): 0.749
relative viability (Nelarabine + Phenformin; first compound 0.1 µM): 0.747
relative viability (Nelarabine + Phenformin; first compound 0.3162 µM): 0.812
relative viability (Nelarabine + Phenformin; first compound 1 µM): 0.86
relative viability (Adavosertib + Bortezomib; first compound 0.01 µM): 1.27
relative viability (Adavosertib + Bortezomib; first compound 0.03162 µM): 1.01
relative viability (Adavosertib + Bortezomib; first compound 0.1 µM): 1
relative viability (Adavosertib + Bortezomib; first compound 0.3162 µM): 1.14
relative viability (Adavosertib + Vorinostat; first compound 0.01 µM): 0.691
relative viability (Adavosertib + Vorinostat; first compound 0.03162 µM): 0.637
relative viability (Adavosertib + Vorinostat; first compound 0.1 µM): 0.613
relative viability (Adavosertib + Vorinostat; first compound 0.3162 µM): 0.415

NCI-H3122
relative viability (Nelarabine + AZD7762; first compound 0.01 µM): 1.24
relative viability (Nelarabine + AZD7762; first compound 0.03162 µM): 0.769
relative viability (Nelarabine + AZD7762; first compound 0.3162 µM): 0.998
relative viability (Nelarabine + AZD7762; first compound 1 µM): 0.969
relative viability (Nelarabine + Phenformin; first compound 0.01 µM): 0.381
relative viability (Nelarabine + Phenformin; first compound 0.03162 µM): 0.356
relative viability (Nelarabine + Phenformin; first compound 0.3162 µM): 0.412
relative viability (Nelarabine + Phenformin; first compound 1 µM): 0.358
relative viability (Adavosertib + Bortezomib; first compound 0.01 µM): 1.12
relative viability (Adavosertib + Bortezomib; first compound 0.03162 µM): 0.992
relative viability (Adavosertib + Bortezomib; first compound 0.1 µM): 1.11
relative viability (Adavosertib + Bortezomib; first compound 0.3162 µM): 1.09
relative viability (Adavosertib + Vorinostat; first compound 0.01 µM): 0.991
relative viability (Adavosertib + Vorinostat; first compound 0.03162 µM): 0.942
relative viability (Adavosertib + Vorinostat; first compound 0.1 µM): 0.857
relative viability (Adavosertib + Vorinostat; first compound 0.3162 µM): 0.992

LXF-289
relative viability (Nelarabine + AZD7762; first compound 0.01 µM): 1.22
relative viability (Nelarabine + AZD7762; first compound 0.03162 µM): 1.14
relative viability (Nelarabine + AZD7762; first compound 0.1 µM): 1.02
relative viability (Nelarabine + AZD7762; first compound 0.3162 µM): 1.17
relative viability (Nelarabine + AZD7762; first compound 1 µM): 1
relative viability (Nelarabine + Phenformin; first compound 0.01 µM): 0.532
relative viability (Nelarabine + Phenformin; first compound 0.03162 µM): 0.574
relative viability (Nelarabine + Phenformin; first compound 0.1 µM): 0.526
relative viability (Nelarabine + Phenformin; first compound 0.3162 µM): 0.571
relative viability (Nelarabine + Phenformin; first compound 1 µM): 0.524
relative viability (Adavosertib + Bortezomib; first compound 0.01 µM): 0.959
relative viability (Adavosertib + Bortezomib; first compound 0.03162 µM): 0.948
relative viability (Adavosertib + Bortezomib; first compound 0.1 µM): 0.999
relative viability (Adavosertib + Bortezomib; first compound 0.3162 µM): 0.999
relative viability (Adavosertib + Vorinostat; first compound 0.01 µM): 0.795
relative viability (Adavosertib + Vorinostat; first compound 0.03162 µM): 0.791
relative viability (Adavosertib + Vorinostat; first compound 0.1 µM): 0.768
relative viability (Adavosertib + Vorinostat; first compound 0.3162 µM): 0.735
